Here are results for 12 compounds from US20220112175A1, “PYRIDAZINES HERBICIDAL COMPOUNDS” (SYNGENTA CROP PROTECTION AG, priority 2019, published 2022).

Common to all, as to assay: Post-emergence efficacy, glasshouse pot test
Common to all, as to type: in vivo

Assay [1] deals with Ipomoea hederacea (IPOHE). Particulars: 312 h, read-out: Post-emergence efficacy IPOHE (100=total damage to plant; 0=no damage to plant). As to the method:
(§1) Seeds of a variety of test species were sown in standard soil in pots. After cultivation for 14 days (post-emergence) under controlled conditions in a glasshouse (at 24/16° C., day/night; 14 hours light; 65% humidity), the plants were sprayed with an aqueous spray solution derived from the dissolution of the technical active ingredient formula (I) in a small amount of acetone and a special solvent and emulsifier mixture referred to as IF50 (11.12% Emulsogen EL360 TM+44.44% N-methylpyrrolidone+44.44% Dowanol DPM glycol ether), to create a 50 g/l solution which was then diluted to required concentration using 0.25% or 1% Empicol ESC70 (Sodium lauryl ether sulphate)+1% ammonium sulphate as diluent.
(§2) The test plants were then grown in a glasshouse under controlled conditions (at 24/16° C., day/night; 14 hours light; 65% humidity) and watered twice daily. After 13 days the test was evaluated (100=total damage to plant; 0=no damage to plant).
(§3) Ipomoea hederacea (IPOHE), Euphorbia heterophylla (EPHHL), Chenopodium album (CHEAL), Amaranthus palmeri (AMAPA), Lolium perenne (LOLPE), Digitaria sanguinalis (DIGSA), Eleusine indica (ELEIN), Echinochloa crus-galli (ECHCG), Setaria faberi (SETFA)

The test system of assay [2] is Lolium perenne (LOLPE). Particulars: 312 h, read-out: Post-emergence efficacy LOLPE (100=total damage to plant; 0=no damage to plant). How it is done: as §1, §2, §3
Assay [3] relates to Amaranthus palmeri (AMAPA). As to conditions: 312 h, read-out: Post-emergence efficacy AMAPA (100=total damage to plant; 0=no damage to plant). As to the method: as §1, §2, §3
Assay [4] concerns Digitaria sanguinalis (DIGSA). Particulars: 312 h, read-out: Post-emergence efficacy DIGSA (100=total damage to plant; 0=no damage to plant). As to the method: as §1, §2, §3
Assay [5] relates to Eleusine indica (ELEIN). As to conditions: 312 h, read-out: Post-emergence efficacy ELEIN (100=total damage to plant; 0=no damage to plant). As to the method: as §1, §2, §3
The test system of assay [6] is Chenopodium album (CHEAL). Particulars: 312 h, read-out: Post-emergence efficacy CHEAL (100=total damage to plant; 0=no damage to plant). How it is done:
as §1, §2, §3

For assay [7], the system named is Euphorbia heterophylla (EPHHL). As to conditions: 312 h, read-out: Post-emergence efficacy EPHHL (100=total damage to plant; 0=no damage to plant). As to the method: as §1, §2, §3
Assay [8] relates to Setaria faberi (SETFA). Particulars: 312 h, read-out: Post-emergence efficacy SETFA (100=total damage to plant; 0=no damage to plant). How it is done:
as §1, §2, §3

Assay [9] has as its system Echinochloa crus-galli (ECHCG). Particulars: 312 h, read-out: Post-emergence efficacy ECHCG (100=total damage to plant; 0=no damage to plant). As to the method:
as §1, §2, §3

[10] abbreviates: Application rate 500 g/Ha, post-emergence spray, evaluated after 13 days.

Like-named read-outs stand apart in the source and are kept apart here.

For the compound `CC(C)(NS(=O)(=O)CC[n+]1ccc(-c2nccs2)cn1)C(=O)O` [Compound A18], the pest or weed control at 500 g/ha turned out to be 0% in assay [1] (setting [10]); 0% in assay [2] (setting [10]); 30% in [3] (setting [10]); 0% in assay [4] (setting [10]); 0% in [5] (setting [10]); 50% in [6] (setting [10]). The pest or weed control at 500 g/ha stood at 10% in [7] (setting [10]), 20% in [8] (setting [10]) and 10% in assay [9] (setting [10]).

Turning to `Cn1cnc(-c2cc[n+](CSCC(=O)O)nc2)n1` [Compound A8, 2-[[4-(1-methyl-1,2,4-triazol-3-yl)pyridazin-1-ium-1-yl]methylsulfanyl]acetic acid chloride], the pest or weed control at 500 g/ha was determined as 30% in assay [1] (setting [10]); 70% in [2] (setting [10]); 100% in [3] (setting [10]); 100% in assay [4] (setting [10]); 100% in assay [5] (setting [10]); 90% in assay [6] (setting [10]). Also, the pest or weed control at 500 g/ha in assay [7] (setting [10]) came out at 70%; in assay [8] (setting [10]) it was 100%; in assay [9] (setting [10]) it was 100%.

On to `CC(NC(=O)C[n+]1ccc(-c2nccs2)cn1)C(=O)O` (stereo not drawn) [Compound A10], for which the pest or weed control at 500 g/ha in assay [1] (setting [10]) was determined as 60%; in assay [2] (setting [10]), 20%; in [3] (setting [10]) it was 100%; in assay [4] (setting [10]), 40%; in assay [5] (setting [10]) it was 40%; in assay [6] (setting [10]), 90%. Moreover, the pest or weed control at 500 g/ha in assay [7] (setting [10]) was 90%; in assay [8] (setting [10]), 40%; in assay [9] (setting [10]), 60%.

For the compound `O=C(C[n+]1ccc(-c2ncsn2)cn1)NC1(C(=O)O)CC1` [Compound A24], the pest or weed control at 500 g/ha was found to be 90% in assay [1] (setting [10]); 50% in assay [2] (setting [10]); 100% in [3] (setting [10]); 100% in assay [4] (setting [10]); 70% in assay [5] (setting [10]); 90% in [6] (setting [10]). Also, the pest or weed control at 500 g/ha came to 90% in assay [7] (setting [10]), 80% in assay [8] (setting [10]) and 80% in assay [9] (setting [10]).

For `CN(CC(=O)O)C(=O)C[n+]1ccc(-c2ncn(C)n2)cn1` [Compound A3], the pest or weed control at 500 g/ha in [1] (setting [10]) worked out at 40%; in [2] (setting [10]), 30%; in assay [3] (setting [10]), 100%; in [4] (setting [10]), 100%; in assay [5] (setting [10]), 90%; in assay [6] (setting [10]) it was 100%. Also, the pest or weed control at 500 g/ha in assay [7] (setting [10]) was found to be 50%; in [8] (setting [10]), 100%; in assay [9] (setting [10]) it was 100%.

For `Cn1cnc(-c2cc[n+](CC(=O)NCCS(=O)(=O)[O-])nc2)n1` [Compound A5, 2-[[2-[4-(1-methyl-1,2,4-triazol-3-yl)pyridazin-1-ium-1-yl]acetyl]amino]ethanesulfonate], the pest or weed control at 500 g/ha in assay [1] (setting [10]) was 20%; in assay [2] (setting [10]) it was 50%; in assay [3] (setting [10]), 90%; in assay [4] (setting [10]) it was 90%; in assay [5] (setting [10]), 60%; in [6] (setting [10]), 80%. The pest or weed control at 500 g/ha came to 60% in assay [7] (setting [10]), 90% in [8] (setting [10]) and 100% in [9] (setting [10]).

Turning to `CC(C)(NC(=O)CC[n+]1ccc(-c2nccs2)cn1)C(=O)O` [Compound A15], the pest or weed control at 500 g/ha in assay [1] (setting [10]) amounted to 40%; in assay [2] (setting [10]), 30%; in [3] (setting [10]), 100%; in assay [4] (setting [10]), 100%; in assay [5] (setting [10]) it was 90%; in [6] (setting [10]), 100%. For the same compound, the results for the pest or weed control at 500 g/ha in [7] (setting [10]), in [8] (setting [10]) and in assay [9] (setting [10]) were 50%, 100% and 100%, respectively.

As for `Cn1cnc(-c2cc[n+](CC(=O)NCC(=O)O)nc2)n1` [Compound A2, 2-[[2-[4-(1-methyl-1,2,4-triazol-3-yl)pyridazin-1-ium-1-yl]acetyl]amino]acetic acid chloride], the pest or weed control at 500 g/ha worked out at 40% in assay [1] (post-emergence); 40% in [2] (post-emergence); 100% in assay [3] (post-emergence); 100% in assay [4] (post-emergence); 80% in [5] (post-emergence); 70% in [6] (post-emergence). Besides, the pest or weed control at 500 g/ha in assay [7] (post-emergence) came out at 50%; in [8] (post-emergence) it was 100%; in assay [9] (post-emergence) it was 100%.

For `O=C(O)CNC(=O)CC[n+]1ccc(-c2nccs2)cn1` [Compound A14], the pest or weed control at 500 g/ha in assay [1] (setting [10]) was found to be 70%; in assay [2] (setting [10]), 50%; in [3] (setting [10]), 100%; in [4] (setting [10]), 100%; in [5] (setting [10]), 100%; in assay [6] (setting [10]), 90%. The pest or weed control at 500 g/ha in [7] (setting [10]) is 100%; in [8] (setting [10]) it was 90%; in assay [9] (setting [10]), 100%.

Take `O=C(O)CNC(=O)C[n+]1ccc(-c2nccs2)cn1` [Compound A12]: the pest or weed control at 500 g/ha in assay [1] (setting [10]) amounted to 70%; in assay [2] (setting [10]) it was 50%; in [3] (setting [10]), 100%; in [4] (setting [10]) it was 40%; in [5] (setting [10]), 70%; in assay [6] (setting [10]) it was 90%. Besides, the results for the pest or weed control at 500 g/ha in assay [7] (setting [10]), in assay [8] (setting [10]) and in assay [9] (setting [10]) were 100%, 50% and 90%, respectively.

For the compound `CC(NC(=O)CC[n+]1ccc(-c2ncsn2)cn1)C(=O)O` (stereo not drawn) [Compound A20], the pest or weed control at 500 g/ha was 60% in [1] (setting [10]); 90% in assay [2] (setting [10]); 100% in assay [3] (setting [10]); 100% in assay [4] (setting [10]); 90% in [5] (setting [10]); 100% in assay [6] (setting [10]). Besides, the pest or weed control at 500 g/ha in assay [7] (setting [10]) came to 80%; in assay [8] (setting [10]), 100%; in assay [9] (setting [10]), 100%.

Turning to `CC(NC(=O)C[n+]1ccc(-c2ncsn2)cn1)C(=O)O` (stereo not drawn) [Compound A19], the pest or weed control at 500 g/ha in assay [1] (setting [10]) came out at 50%; in assay [2] (setting [10]), 40%; in assay [3] (setting [10]), 100%; in assay [4] (setting [10]), 80%; in [5] (setting [10]), 80%; in assay [6] (setting [10]) it was 90%. For the same compound, the pest or weed control at 500 g/ha in [7] (setting [10]) came out at 90%; in assay [8] (setting [10]), 90%; in [9] (setting [10]) it was 80%.
